Patent publication US10245261B2, “Substituted indol-5-ol derivatives and their therapeutic applications” (NantBioScience, Inc., priority 2013, dated 2019)

Columns and labels:
Test in all cases: KinaseProfiler kinase assay
Format in all cases: biochemical
Met(Y1248H)(h) = Met(Y1248H)(h) (Homo sapiens, UniProt P08581, Y1230H)
Procedure, shortened: (§1)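 Each enzyme was assayed radiometrically: 40 min room-temperature reaction with [γ-33P]ATP and 10 mM Mg acetate, acid-stopped, filtered, scintillation-counted.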

Aurora-C(h) = Aurora-C(h) (Homo sapiens, UniProt Q9UQB9)
Procedure, shortened: as §1

PRK2(h) = PRK2(h) (Homo sapiens, UniProt Q16513)
Procedure, shortened: as §1

SAPK3(h) = SAPK3(h) (Homo sapiens, UniProt P53778)
Procedure, shortened: as §1

PhKγ2(h) = PhKγ2(h) (Homo sapiens, UniProt P15735)
Procedure, shortened: as §1

[1] = molecular target: PI3 Kinase (p110β/p85β)(m) (Mus musculus, UniProt Q8BTI9)
Procedure, shortened: as §1

CK2α2(h) = CK2α2(h) (Homo sapiens, UniProt P19784)
Procedure, shortened: as §1

Met(Y1248C)(h) = Met(Y1248C)(h) (Homo sapiens, UniProt P08581, Y1230C)
Procedure, shortened: as §1

MINK(h) = MINK(h) (Homo sapiens, UniProt Q8N4C8)
Procedure, shortened: as §1

DYRK2(h) = DYRK2(h) (Homo sapiens, UniProt Q92630)
Procedure, shortened: as §1

Txk(h) = Txk(h) (Homo sapiens, UniProt P42681)
Procedure, shortened: as §1

DAPK2(h) = DAPK2(h) (Homo sapiens, UniProt Q9UIK4)
Procedure, shortened: as §1

ZIPK(h) = ZIPK(h) (Homo sapiens, UniProt O43293)
Procedure, shortened: as §1

[2] = molecular target: PI3 Kinase (p110β/p85α)(m) (Mus musculus, UniProt Q8BTI9)
Procedure, shortened: as §1

VRK2(h) = VRK2(h) (Homo sapiens, UniProt Q86Y07)
Procedure, shortened: as §1

p70S6K(h) = p70S6K(h) (Homo sapiens, UniProt P23443)
Procedure, shortened: as §1

cKit(h) = cKit(h) (Homo sapiens, UniProt P10721)
Procedure, shortened: as §1

CHK2(h) = CHK2(h) (Homo sapiens, UniProt O96017)
Procedure, shortened: as §1

Hck(h) activated = Hck(h) activated (Homo sapiens, UniProt P08631)
Procedure, shortened: as §1

GRK5(h) = GRK5(h) (Homo sapiens, UniProt P34947)
Procedure, shortened: as §1

PAK2(h) = PAK2(h) (Homo sapiens, UniProt Q13177)
Procedure, shortened: as §1

PASK(h) = PASK(h) (Homo sapiens, UniProt Q96RG2)
Procedure, shortened: as §1

MST3(h) = MST3(h) (Homo sapiens, UniProt Q9Y6E0)
Procedure, shortened: as §1

Fyn(h) = Fyn(h) (Homo sapiens, UniProt P06241)
Procedure, shortened: as §1

CDK9/cyclin T1(h) = CDK9/cyclin T1(h) (Homo sapiens, UniProt P50750)
Procedure, shortened: as §1

Tie2(Y897S)(h) = Tie2(Y897S)(h) (Homo sapiens, UniProt Q02763, Y897S)
Procedure, shortened: as §1

JAK3(h) = JAK3(h) (Homo sapiens, UniProt P52333)
Procedure, shortened: as §1

CLK3(h) = CLK3(h) (Homo sapiens, UniProt P49761)
Procedure, shortened: as §1

PKBα(h) = PKBα(h) (Homo sapiens, UniProt P31749)
Procedure, shortened: as §1

Rsk1(r) = Rsk1(r) (Rattus norvegicus, UniProt Q63531)
Procedure, shortened: as §1

ALK(h) = ALK(h) (Homo sapiens, UniProt Q9UM73)
Procedure, shortened: as §1

ALK4(h) = ALK4(h) (Homo sapiens, UniProt P36896)
Procedure, shortened: as §1

Chain of Txk(h) (P42681 whole entry): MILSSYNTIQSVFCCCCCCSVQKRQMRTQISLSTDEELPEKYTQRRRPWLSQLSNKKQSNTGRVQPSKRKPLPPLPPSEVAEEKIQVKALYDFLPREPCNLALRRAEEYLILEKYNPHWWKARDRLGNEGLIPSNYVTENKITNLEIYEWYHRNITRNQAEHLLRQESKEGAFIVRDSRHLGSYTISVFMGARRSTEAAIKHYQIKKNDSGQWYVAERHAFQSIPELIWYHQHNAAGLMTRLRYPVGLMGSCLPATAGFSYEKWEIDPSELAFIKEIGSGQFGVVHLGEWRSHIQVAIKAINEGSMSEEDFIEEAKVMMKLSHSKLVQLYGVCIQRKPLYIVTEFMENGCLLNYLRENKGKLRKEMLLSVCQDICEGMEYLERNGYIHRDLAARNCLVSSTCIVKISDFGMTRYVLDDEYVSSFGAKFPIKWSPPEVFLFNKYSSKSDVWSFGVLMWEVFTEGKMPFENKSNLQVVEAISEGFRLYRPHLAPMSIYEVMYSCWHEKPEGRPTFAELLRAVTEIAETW
Chain of CHK2(h) (O96017 whole entry): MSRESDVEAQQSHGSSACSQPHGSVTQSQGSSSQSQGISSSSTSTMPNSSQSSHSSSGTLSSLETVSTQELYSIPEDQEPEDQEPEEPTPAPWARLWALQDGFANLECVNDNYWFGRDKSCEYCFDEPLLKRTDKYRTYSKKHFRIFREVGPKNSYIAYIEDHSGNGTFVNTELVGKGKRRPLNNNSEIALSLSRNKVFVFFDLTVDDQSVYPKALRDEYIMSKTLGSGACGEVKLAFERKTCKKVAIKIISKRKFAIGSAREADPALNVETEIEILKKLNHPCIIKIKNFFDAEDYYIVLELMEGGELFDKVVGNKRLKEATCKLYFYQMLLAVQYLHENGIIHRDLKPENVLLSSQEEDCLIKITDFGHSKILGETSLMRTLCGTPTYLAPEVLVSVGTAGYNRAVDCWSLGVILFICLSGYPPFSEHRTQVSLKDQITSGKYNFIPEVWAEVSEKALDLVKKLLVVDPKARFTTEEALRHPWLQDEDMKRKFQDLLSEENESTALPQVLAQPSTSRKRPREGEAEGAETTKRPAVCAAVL
Chain of CLK3(h) (P49761 whole entry): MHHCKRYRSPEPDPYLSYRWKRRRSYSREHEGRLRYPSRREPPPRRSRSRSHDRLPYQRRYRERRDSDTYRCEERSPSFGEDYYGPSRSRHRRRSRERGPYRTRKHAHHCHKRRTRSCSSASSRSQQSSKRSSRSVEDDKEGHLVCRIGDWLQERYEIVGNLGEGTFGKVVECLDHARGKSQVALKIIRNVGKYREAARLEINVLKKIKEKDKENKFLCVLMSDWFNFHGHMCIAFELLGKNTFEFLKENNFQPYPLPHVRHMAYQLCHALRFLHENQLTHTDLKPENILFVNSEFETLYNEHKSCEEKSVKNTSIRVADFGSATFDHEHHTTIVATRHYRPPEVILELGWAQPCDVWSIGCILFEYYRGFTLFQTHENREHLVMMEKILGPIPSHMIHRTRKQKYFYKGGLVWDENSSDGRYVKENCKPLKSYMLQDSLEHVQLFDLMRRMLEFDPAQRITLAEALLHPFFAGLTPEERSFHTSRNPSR
Chain of ZIPK(h) (O43293 whole entry): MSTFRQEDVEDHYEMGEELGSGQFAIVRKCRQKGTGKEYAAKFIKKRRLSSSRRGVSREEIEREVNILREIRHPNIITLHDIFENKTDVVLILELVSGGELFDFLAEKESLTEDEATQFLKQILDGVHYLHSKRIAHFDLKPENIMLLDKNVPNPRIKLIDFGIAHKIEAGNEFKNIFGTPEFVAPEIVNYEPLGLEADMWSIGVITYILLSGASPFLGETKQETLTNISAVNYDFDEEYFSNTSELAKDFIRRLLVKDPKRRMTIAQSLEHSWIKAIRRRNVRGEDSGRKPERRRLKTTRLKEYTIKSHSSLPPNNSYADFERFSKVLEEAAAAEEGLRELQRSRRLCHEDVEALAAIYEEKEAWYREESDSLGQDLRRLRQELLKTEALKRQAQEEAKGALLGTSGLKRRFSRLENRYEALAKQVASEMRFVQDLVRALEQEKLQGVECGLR
Chain of PASK(h) (Q96RG2 whole entry): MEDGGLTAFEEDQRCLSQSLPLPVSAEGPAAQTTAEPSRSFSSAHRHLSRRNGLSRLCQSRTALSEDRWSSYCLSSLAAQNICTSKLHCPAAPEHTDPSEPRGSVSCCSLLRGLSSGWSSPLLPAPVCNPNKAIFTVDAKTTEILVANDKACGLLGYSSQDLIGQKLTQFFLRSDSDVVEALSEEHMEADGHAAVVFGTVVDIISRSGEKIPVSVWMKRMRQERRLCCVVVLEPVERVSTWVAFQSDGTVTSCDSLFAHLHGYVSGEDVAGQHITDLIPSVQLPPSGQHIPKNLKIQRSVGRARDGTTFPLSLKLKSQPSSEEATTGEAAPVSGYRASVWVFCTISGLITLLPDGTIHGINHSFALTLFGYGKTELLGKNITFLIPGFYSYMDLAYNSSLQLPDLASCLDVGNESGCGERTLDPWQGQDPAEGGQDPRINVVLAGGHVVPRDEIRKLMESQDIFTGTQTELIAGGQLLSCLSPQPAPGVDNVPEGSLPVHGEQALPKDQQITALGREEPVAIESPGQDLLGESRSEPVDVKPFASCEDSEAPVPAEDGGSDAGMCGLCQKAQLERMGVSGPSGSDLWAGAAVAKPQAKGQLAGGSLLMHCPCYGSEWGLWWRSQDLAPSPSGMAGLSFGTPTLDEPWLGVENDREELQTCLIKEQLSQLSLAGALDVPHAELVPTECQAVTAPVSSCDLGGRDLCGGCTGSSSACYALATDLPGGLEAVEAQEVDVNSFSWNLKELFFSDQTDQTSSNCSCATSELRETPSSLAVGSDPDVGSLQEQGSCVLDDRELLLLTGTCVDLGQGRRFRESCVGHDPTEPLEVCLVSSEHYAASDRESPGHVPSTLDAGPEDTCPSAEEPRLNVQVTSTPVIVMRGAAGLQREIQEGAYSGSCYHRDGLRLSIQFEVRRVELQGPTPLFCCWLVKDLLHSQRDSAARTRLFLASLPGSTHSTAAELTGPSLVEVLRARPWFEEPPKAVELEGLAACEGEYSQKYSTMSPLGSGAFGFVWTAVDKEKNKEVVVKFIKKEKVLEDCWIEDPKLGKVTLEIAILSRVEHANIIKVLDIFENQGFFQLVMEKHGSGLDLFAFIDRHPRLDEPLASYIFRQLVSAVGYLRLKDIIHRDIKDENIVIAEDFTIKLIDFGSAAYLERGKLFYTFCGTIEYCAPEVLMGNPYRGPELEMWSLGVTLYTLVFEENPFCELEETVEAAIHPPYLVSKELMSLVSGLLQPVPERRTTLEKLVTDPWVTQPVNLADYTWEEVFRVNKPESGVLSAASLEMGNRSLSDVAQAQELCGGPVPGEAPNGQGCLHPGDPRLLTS
Chain of Tie2(Y897S)(h) (Q02763 23-1124 Y897S): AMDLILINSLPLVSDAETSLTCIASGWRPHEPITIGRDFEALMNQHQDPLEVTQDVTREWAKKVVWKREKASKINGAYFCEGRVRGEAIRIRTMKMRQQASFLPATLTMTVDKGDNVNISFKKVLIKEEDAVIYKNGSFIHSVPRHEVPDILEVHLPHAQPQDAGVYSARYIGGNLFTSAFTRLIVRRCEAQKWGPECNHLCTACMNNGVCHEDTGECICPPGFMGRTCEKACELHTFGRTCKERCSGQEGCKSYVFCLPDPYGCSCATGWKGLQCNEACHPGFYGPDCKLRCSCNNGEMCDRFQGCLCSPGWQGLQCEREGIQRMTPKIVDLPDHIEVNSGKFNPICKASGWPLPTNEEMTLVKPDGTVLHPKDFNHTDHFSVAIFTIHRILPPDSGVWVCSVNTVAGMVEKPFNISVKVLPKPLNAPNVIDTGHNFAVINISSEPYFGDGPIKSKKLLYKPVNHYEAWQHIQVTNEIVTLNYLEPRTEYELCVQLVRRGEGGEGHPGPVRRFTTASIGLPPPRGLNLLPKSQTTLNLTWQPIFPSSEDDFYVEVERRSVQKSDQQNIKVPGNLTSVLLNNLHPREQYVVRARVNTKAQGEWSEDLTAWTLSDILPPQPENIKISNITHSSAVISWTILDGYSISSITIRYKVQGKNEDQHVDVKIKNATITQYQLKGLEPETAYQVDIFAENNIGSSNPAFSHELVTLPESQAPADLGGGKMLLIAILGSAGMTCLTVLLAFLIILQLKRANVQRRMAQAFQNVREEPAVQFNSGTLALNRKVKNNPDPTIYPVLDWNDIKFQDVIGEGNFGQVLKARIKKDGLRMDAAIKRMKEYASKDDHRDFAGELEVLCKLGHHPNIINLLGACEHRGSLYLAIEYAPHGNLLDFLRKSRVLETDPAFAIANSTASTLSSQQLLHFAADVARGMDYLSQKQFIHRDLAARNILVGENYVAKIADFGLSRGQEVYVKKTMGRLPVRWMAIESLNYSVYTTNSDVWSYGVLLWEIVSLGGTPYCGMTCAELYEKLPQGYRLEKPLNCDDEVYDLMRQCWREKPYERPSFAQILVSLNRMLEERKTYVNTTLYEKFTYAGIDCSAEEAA
Chain of Aurora-C(h) (Q9UQB9 whole entry): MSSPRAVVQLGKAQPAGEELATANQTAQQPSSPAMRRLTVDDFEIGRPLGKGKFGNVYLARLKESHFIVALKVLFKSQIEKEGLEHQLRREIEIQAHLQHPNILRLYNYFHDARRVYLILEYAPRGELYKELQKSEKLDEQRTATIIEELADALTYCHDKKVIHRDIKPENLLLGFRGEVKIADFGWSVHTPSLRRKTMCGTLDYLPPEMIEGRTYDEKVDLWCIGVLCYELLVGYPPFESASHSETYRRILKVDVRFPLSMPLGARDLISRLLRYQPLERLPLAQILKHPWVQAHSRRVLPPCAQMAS
Chain of Hck(h) activated (P08631 251-518): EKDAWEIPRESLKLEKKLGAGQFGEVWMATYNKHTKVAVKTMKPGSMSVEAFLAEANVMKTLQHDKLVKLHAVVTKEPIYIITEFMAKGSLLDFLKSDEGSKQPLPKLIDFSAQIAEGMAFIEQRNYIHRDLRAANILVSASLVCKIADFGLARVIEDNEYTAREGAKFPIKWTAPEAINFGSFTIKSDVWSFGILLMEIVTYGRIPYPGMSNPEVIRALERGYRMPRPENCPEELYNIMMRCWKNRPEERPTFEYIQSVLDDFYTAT

SMILES | inhibition at 0.1 µM (Met(Y1248H)(h)) [%] | inhibition at 0.1 µM (Aurora-C(h)) [%] | inhibition at 0.1 µM (PRK2(h)) [%] | inhibition at 0.1 µM (SAPK3(h)) [%] | inhibition at 0.1 µM (PhKγ2(h)) [%] | inhibition at 0.1 µM [1] [%] | inhibition at 0.1 µM (CK2α2(h)) [%] | inhibition at 0.1 µM (Met(Y1248C)(h)) [%] | inhibition at 0.1 µM (MINK(h)) [%] | inhibition at 0.1 µM (DYRK2(h)) [%] | inhibition at 0.1 µM (Txk(h)) [%] | inhibition at 0.1 µM (DAPK2(h)) [%] | inhibition at 0.1 µM (ZIPK(h)) [%] | inhibition at 0.1 µM [2] [%] | inhibition at 0.1 µM (VRK2(h)) [%] | inhibition at 0.1 µM (p70S6K(h)) [%] | inhibition at 0.1 µM (cKit(h)) [%] | inhibition at 0.1 µM (CHK2(h)) [%] | inhibition at 0.1 µM (Hck(h) activated) [%] | inhibition at 0.1 µM (GRK5(h)) [%] | also measured
Cc1cc2c(F)c(Oc3nc(Nc4cc(C5CC5)[nH]n4)cc(N4CCN(C)CC4)n3)ccc2[nH]1 [Compound 10] | 69 | 54 | 51 | -4 | 2 | -1 | -13 | 57 | 7 | -6 | 75 | -16 | 1 | 0 | 34 | -10 | 0 | 11 | 90 | 18 | inhibition at 0.1 µM (PAK2(h)): 16%; inhibition at 0.1 µM (PASK(h)): 22%; inhibition at 0.1 µM (MST3(h)): 85%; inhibition at 0.1 µM (Fyn(h)): 102%; inhibition at 0.1 µM (CDK9/cyclin T1(h)): 22%; inhibition at 0.1 µM (Tie2(Y897S)(h)): 91%; inhibition at 0.1 µM (JAK3(h)): 86%; inhibition at 0.1 µM (CLK3(h)): 16%; inhibition at 0.1 µM (PKBα(h)): -24%; inhibition at 0.1 µM (Rsk1(r)): 16%; inhibition at 0.1 µM (ALK(h)): 87%; inhibition at 0.1 µM (ALK4(h)): 77%
Cc1cc2c(F)c(Oc3nc(Nc4cc(C5CC5)[nH]n4)cc(N4CCNCC4)n3)ccc2[nH]1 [Compound 11, N-(5-cyclopropyl-1H-pyrazol-3-yl)-2-((4-fluoro-2-methyl-1H-indol-5-yl)oxy)-6-(piperazin-1-yl)pyrimidin-4-amine] | 91 | 67 | 51 | -24 | 13 | -1 | 8 | 95 | 31 | -1 | 87 | -6 | 7 | 1 | 4 | 2 | 24 | 4 | 84 | -2 | inhibition at 0.1 µM (PAK2(h)): 0%; inhibition at 0.1 µM (PASK(h)): -17%; inhibition at 0.1 µM (MST3(h)): 80%; inhibition at 0.1 µM (Fyn(h)): 99%; inhibition at 0.1 µM (CDK9/cyclin T1(h)): 32%; inhibition at 0.1 µM (Tie2(Y897S)(h)): 93%; inhibition at 0.1 µM (JAK3(h)): 86%; inhibition at 0.1 µM (CLK3(h)): -14%; inhibition at 0.1 µM (PKBα(h)): -4%; inhibition at 0.1 µM (Rsk1(r)): 14%; inhibition at 0.1 µM (ALK(h)): 86%; inhibition at 0.1 µM (ALK4(h)): 81%
